A word on the Km: it is the concentration of substrate that gives half-maximal velocity.

In this assay the test system is T1, AcAAT4.
T1 construct: pET32a-His fusion, expressed in E. coli BL21, Ni-NTA purified; tag cleavage not mentioned
The assay is described as follows: GC-MS of SPME-collected (Z)-3-hexenyl acetate, varied (Z)-3-hexenol. Format: biochemical, Acacia confusa. Particulars: acetyl-CoA co-substrate; 50 mM Tris-HCl pH 7.4 in methods (text: optimal conditions pH 7.5-8); 30 °C.

Turning to `CC/C=C\CCO` [(Z)-3-hexenol], the Km is 54.6 µM.

The values above are taken from PMC12330005, “Mechanism mediating the biosynthesis of the anti-insect volatile (Z)-3-hexenyl acetate in Acacia confusa Merr., an intercropping plant in tea plantations” (Molecular Horticulture, 2025).
